This note sets out measurements from US20040203117A1, “Method of expressing genetically modified protein carrying sugar chain having sialic acid added thereto in insect cells” (priority 2001, published 2004).

The subject of series [1] is α-2,6-linked sialylation of recombinant boIFN-τ in TN5 cells. The experiment in a line: Lectin blot analysis (HRP-SNA) of sialic acid in recombinant boIFN-τ expressed by TN5 cells. Format: cell-based, insect (TN5 cells). The following applies: 2-ADN 0, 0.05, 0.5, 1, 2 and 5 mM; total amount of protein of each lane the same. On the procedure: After TN5 cells were infected with a recombinant baculovirus, they were cultured for 3 days. The supernatant was subjected to Tricine SDS-PAGE performed under reducing conditions (600 ng protein per lane). After the separated protein was transferred on a PVDF membrane, and blocked with PBS containing 1% BSA at 4° C. overnight, the protein was washed with 200 mM Tris-buffered saline (TBS) containing 0.05% Tween 20, and then reacted with 5 μg/ml Sambucus nigra agglutinin labeled with horseradish peroxidase (HRP-SNA, manufactured by EY laboratory) at room temperature for one hour. The carbohydrate reacted was visualized by a Renaissance Western Blot Chemiluminescence Kit (Manufactured by NEN).
To investigate whether or not a sialylated recombinant glycoprotein is produced in insect cells where the GlcNAcase activity is inhibited, the terminal structure of N-glycan of recombinant boIFN-τ was determined by a lectin blot analysis using SNA, which is a lectin capable of recognizing α-2,6-linked sialic acid.

The subject of a further series is TN5 cells. The following applies: 2-ADN added in a concentration of 5 mM. On the procedure:
TN5 cells were cultured in EX-CELL401 medium (manufactured by JRH Bioscience) containing 0 to 5 mM of 2-acetamide-1,2-dideoxynojirimycin (2-ADN) (Tront Research Chemicals Inc.) at 28° C. for 3 days. Subsequently, TN5 (TN5B1-4) cells were infected with the recombinant baculovirus prepared as described above at an moi of 1.0 and subjected to a further culturing in EX-CELL401 medium (manufactured by JRH Bioscience) at 28° C. for 3 days. Thereafter, the supernatant containing recombinant boIFN-τ (rboIFN-τ) was recovered.

Series [2] relates to N-acetylglucosaminidase (GlcNAcase) of TN5 cells. The series can be described thus: GlcNAcase inhibition assay of TN5 cells (p-nitrophenol release from p-nitrophenyl β-D-acetylglucosamide). Format: biochemical, insect (TN5 cells). On the procedure: The GlcNAcase inhibition assay of TN5 cells was performed as follows.
TN5 cells (2.0×10^7 cells) were washed once with PBS and rinsed with 1 ml of PBS containing 1% Triton-X 100. After centrifugation at 1,000×g for 5 minutes, the supernatant was used as an enzyme source. Fifty μl of the supernatant was mixed with 50 μl of 2-ADN to make a final 2-ADN concentration of 0 to 5 mM. To the solution mixture, 200 μl of a substrate solution (1 mg/ml p-nitrophenyl β-D-acetylglucosamide in 0.2 M citrate/phosphate buffer) was added. The resultant solution was incubated at 37° C. for one hour. The reaction was quenched by adding 1 M Na2CO3, the absorption of released p-nitrophenol was measured at 420 nm. […] Lanes 1 to 6 in the figures show the results obtained at addition amounts of 2-ADN, 0, 0.05, 0.5, 1, 2 and 5 mM, respectively.

Series [3] deals with N-glycosylation of recombinant boIFN-τ in TN5 cells. The experiment in a line: SDS-PAGE and Western blot of recombinant boIFN-τ from TN5 cells cultured with tunicamycin. Format: cell-based, insect (TN5 cells). The conditions noted are these: 1 μg/ml tunicamycin, 3 days; only the 19.5 kD molecule observed. As for the experimental part:
The addition of a sugar chain to a recombinant protein, that is, N-glycosylation, was inhibited by culturing the TN5 cells infected with a recombinant baculovirus in a medium containing 1 μg/ml tunicamycin (manufactured by Sigma Chemical Co.) for 3 days.
Twenty μl of the culture supernatant of TN5 cells cultured for 3 days after infection with a recombinant baculovirus was subjected as a sample to Tricine SDS-PAGE performed under reducing conditions in accordance with a method described in Schagger, H. et al., Anal. Biochem. 166, 368-379 (1987). After electrophoresis, the separated protein was stained with Coomassie brilliant blue (CBB)G-250 or blotted on a polyvinylidene difluoride (PDFV) membrane (manufactured by Millipore Corporation). The protein-transferred membrane was blocked with PBS containing 5% skim milk at 4° C. overnight and allowed to react with a 0.2 μg/ml anti-boIFN-τ monoclonal antibody (manufactured by Katakura Industries) at room temperature for one hour, and further incubated with 2000-fold-diluted HPR-rabbit anti-mouse IgG at room temperature. The antibody bound to the protein was visualized by 3,3′-diaminobenzidine staining. The densities of bands obtained after the CBB staining and Western blotting were quantified by using a densitometer.
For orientation: In western blotting, separated proteins are transferred to a membrane and probed.

Take `CC(=O)N[C@H]1CN[C@H](CO)[C@@H](O)[C@@H]1O` [2-ADN, 2-acetoamide-1,2-dideoxynojirimycin]: the “SNA-reactive band intensity (sialic acid in recombinant boIFN-τ)” value in series [1] is “increased by adding 2-ADN in a concentration dependent manner”. Besides, the proliferation of cells result in the series with TN5 cells is on record as “not affected”. Besides, the “GlcNAcase activity, dependence on concentration” value in series [2] (0 to 5 mM 2-ADN) is given as “inhibited by 2-ADN in a concentration-dependent manner”. Moreover, the GlcNAcase activity inhibited result in series [2] (5 mM 2-ADN, TN5 cell lysate supernatant, 37° C., one hour) is “About 80%”.
Turning to tunicamycin, the “N-glycosylation of recombinant boIFN-τ” value in series [3] is recorded as “blocked”.
